Data from patent US9643968B2, “Fused acridine derivative and pharmaceutical composition, preparation method and use thereof” (Peking University, priority 2014, dated 2017).

Experiments:
[1] = tested on: HCT116 (human colon cancer cell); assay: MTT in vitro cytotoxicity, HCT116; type: cell-based; settings: HCT-116, 72 hr incubation
Experimental: (§1) Materials and methods: MTT (3-[4,5-dimethylthiazol-2-yl]-diphenyl tetrazolium bromide) method was employed to determine the antiproliferative activity of all the compounds of the Examples and Contrasting Examples in vitro against selected cell lines, including HCT116 (human colon cancer cell), PC-3 (human prostate cancer), HepG2 (human hepatocellular carcinoma), SK-OV-3 (human ovarian adenocarcinoma), MCF-7 (human breast cancer), U87MG (human glioblastoma cell) cell lines.
(§2) Procedure: Human tumor cells of HCT116, PC-3, HepG2, SK-OV-3, MCF-7, and U87MG were in vitro cultured, and collected until the cells grow to the logarithmic phase. The cells were centrifuged for 5 minutes at 1000 rpm, and supernatant was discarded. Subsequently appropriate culture medium was added to suspend the precipitation, and the concentration of cells was adjusted to 3.5˜5.5×10^4/mL. the suspensions of cells were seeded in 96-well microplate at 100 μL per well, and incubated in incubator (37° C., 5% CO2) for 24 hr. The compound to test was added. For the control group, equivalent concentration of DMSO (final concentration 0.5%) was added. For each group, three copy wells were set. After incubated for 72 hr, 20 μL 5 mg/mL of MTT was added into each well, and placed at 37° C. for 3 hr. 150 μL of DMSO was added into each wells, and vibrated the shaker at 37° C. for 5 mins, then measured the absorbance (OD) value at 492 nm/620 nm. The IC50 values were calculated using Prism 5.0 software.

[2] = tested on: U87MG (human glioblastoma cell); assay: MTT in vitro cytotoxicity, U87MG; type: cell-based; settings: U-87 MG, 72 hr incubation
Experimental: as §1, §2

[3] = tested on: SK-OV-3 (human ovarian adenocarcinoma); assay: MTT in vitro cytotoxicity, SK-OV-3; type: cell-based; settings: 72 hr incubation
Experimental: as §1, §2

[4] = tested on: PC-3 (human prostate cancer); assay: MTT in vitro cytotoxicity, PC-3; type: cell-based; settings: 72 hr incubation, read-out: IC50 PC3
Experimental: as §1, §2

[5] = tested on: HepG2 (human hepatocellular carcinoma); assay: MTT in vitro cytotoxicity, HepG2; type: cell-based; settings: 72 hr incubation
Experimental: as §1, §2

tumor cells (U87MG) = assay: Assay for inhibiting cancer cell clone formation (soft agar); type: cell-based, human; settings: concentration range from 0.020 to 0.090 μM, 10-14 days
Experimental: Materials and methods: The tested tumor cells (U87MG) in the logarithmic phase were digested with 0.25% trypsin then percussed gently to the single cell state, and counted the live cells. The cells density was adjusted to 1×10^6[…] with DMEM containing 20% fetal bovine serum, and then diluted gradiently according to the experiment requirement.
Two concentrations (1.2% and 0.7%) of low melting point agarose fluid were prepared with distilled water respectively. A mixture of 1.2% agarose fluid and 2×DMEM medium (contains 2× antibiotics and 20% calf serum) was prepared in 1:1 ratio, then transferred (3 mL) into 6 cm diameter flat dishes, cooled to solidification to furnish the bottom agar which was stored in a CO2 incubator. The cell suspension (0.2 mL) was added to a mixture of 0.7% agarose and 2×DMEM medium which was prepared in 1:1 ratio in sterile tubes, and thoroughly mixed before injection to the precoated dishes to form the double layer agar. After the upper agar being solidified, the dishes were incubated in 37° C. and 5% CO2 for 10-14 days, each experiment was performed in 3-6 times.
The number of clones was counted under an inverted microscope. The clone formation rate was calculated.

Structure (SMILES) | IC50 [1] [nM] | IC50 [2] [nM] | IC50 [3] [nM] | IC50 [4] [nM] | IC50 [5] [nM] | inhibition of glioma cell clone formation (tumor cells (U87MG))
O=C1c2c3ccccc3nc3cccc(c23)N1CCCN1CCCC1 [Compound 1h, 2-(3-(pyrrolidin-1-yl)propyl)pyrrolo[2,3,4-kl]acridin-1-(2H)-one] | 1800 | 10200 | 11900 | 11900 | 8150 | 
O=C1c2c3cc(Cl)ccc3nc3cccc(c23)N1CCN1CCCCC1 [Compound 4b, 9-chloro-2-(2-(piperidin-1-yl)ethyl)pyrrolo[2,3,4-kl]acridin-1-(2H)-one] | 1380 | 1890 |  | 2880 | 2250 | 
CN(C)CCN1C(=O)c2c3cc(Cl)ccc3nc3cccc1c23 [Compound 2b, 9-chloro-2-(2-(dimethylamino)ethyl)pyrrolo[2,3,4-kl]acridin-1-(2H)-one] | 859 | 1450 |  | 1220 | 1080 | significantly inhibited
Cc1ccc2nc3c(C)ccc4c3c(c2c1)C(=O)N4CCN(C)C [Compound 5a, 2-(2-(dimethylamino)ethyl)-5,9-dimethylpyrrolo[2,3,4-kl]-acridin-1-(2H)-one] | 1060 | 1480 |  | 2900 | 1940 | significantly inhibited
COc1ccc2nc3cccc4c3c(c2c1)C(=O)N4CCN1CCCCC1 [Compound 4c, 9-methoxy-2-(2-(piperidin-1-yl)ethyl)pyrrolo[2,3,4-kl]acridin-1-(2H)-one] | 284 | 497 |  | 1400 | 1500 | 
CN(C)CCN1C(=O)c2c3ccccc3nc3c([N+](=O)[O-])ccc1c23 [Compound 2e] | 1340 | 1740 |  | 998 | 1860 | 
Cc1ccc2c3c(c4cccc(F)c4nc13)C(=O)N2CCN(C)C [Compound 5d, 2-(2-(dimethylamino)ethyl)-7-fluoro-5-methylpyrrolo[2,3,4-kl]-acridin-1-(2H)-one] | 1000 | 1420 |  | 2510 | 1720 | significantly inhibited
COc1ccc2nc3c(C)ccc4c3c(c2c1)C(=O)N4CCN(C)C [Compound 5c, 2-(2-(dimethylamino)ethyl)-9-methoxy-5-methylpyrrolo[2,3,4-kl]-acridin-1-(2H)-one] | 165 | 269 |  | 689 | 232 | 
CCCCN1C(=O)c2c3ccccc3nc3cccc1c23 [Compound 6a, 2-butylpyrrolo[2,3,4-kl]acridin-1-(2H)-one, reference compound] | > 50000 | > 50000 | > 50000 | > 50000 | > 50000 | 
CN(C)CCCN1C(=O)c2c3cc(Cl)ccc3nc3cccc1c23.O=C(O)/C=C/C(=O)O [Compound 3b′, 9-chloro-2-(3-(dimethylamino)propyl)pyrrolo[2,3,4-kl]acridin-1-(2H)-one fumarate] |  |  |  |  |  | significantly inhibited
CN(C)CCCN1C(=O)c2c3cccc(F)c3nc3cccc1c23 [Compound 3d, 2-(3-(dimethylamino)propyl)-7-fluoropyrrolo[2,3,4-kl]acridin-1-(2H)-one] | 1490 | 2360 |  | 4990 | 2100 | 
Cc1ccc2nc3cccc4c3c(c2c1)C(=O)N4CCCN(C)C [Compound 3a, 2-(3-(dimethylamino)propyl)-9-methylpyrrolo[2,3,4-kl]acridin-1-(2H)-one] | 1380 | 2190 |  | 8210 | 2850 | 
CN(C)CCN1C(=O)c2c3ccccc3nc3cccc1c23 [Compound 1a, 2-(2-(dimethylamino)ethyl)pyrrolo[2,3,4-kl]acridin-1-(2H)-one] | 7410 | 582 | 14800 | 14500 | 6350 | 
Cc1ccc2c3c(c4cc(Cl)ccc4nc13)C(=O)N2CCN(C)C [Compound 5b, 9-chloro-2-(2-(dimethylamino)ethyl)-5-methylpyrrolo[2,3,4-kl]-acridin-1-(2H)-one] | 930 | 1270 |  | 2240 | 1170 | significantly inhibited
CN(C)CCCN1C(=O)c2c3cc(Cl)ccc3nc3cccc1c23 [Compound 3b, 9-chloro-2-(3-(dimethylamino)propyl)pyrrolo[2,3,4-kl]acridin-1-(2H)-one] | 1320 | 1580 |  | 2330 | 1470 | 
Cc1ccc2nc3cccc4c3c(c2c1)C(=O)N4CCN1CCCCC1 [Compound 4a, 9-methyl-2-(2-(piperidin-1-yl)ethyl)pyrrolo[2,3,4-kl]acridin-1-(2H)-one] | 1420 | 1330 |  | 4130 | 2570 | 
O=C1c2c3ccccc3nc3cccc(c23)N1CCCN1CCOCC1 [Compound 1b, 2-(3-morpholinopropyl)pyrrolo[2,3,4-kl]acridin-1-(2H)-one] | 1870 | 1780 | 8430 | 3010 | 2780 | 
Cc1ccc2nc3cccc4c3c(c2c1)C(=O)N4CCN(C)C [Compound 2a, 2-(2-(dimethylamino)ethyl)-9-methylpyrrolo[2,3,4-kl]acridin-1-(2H)-one] | 1050 | 2050 |  | 3520 | 2820 | 
O=C1c2c3cccc(F)c3nc3cccc(c23)N1CCN1CCCCC1 [Compound 4d, 7-fluoro-2-(2-(piperidin-1-yl)ethyl)pyrrolo[2,3,4-kl]acridin-1-(2H)-one] | 1210 | 1780 |  | 4700 | 3580 | 
CN(C)CCN1C(=O)c2c3cccc(F)c3nc3cccc1c23 [Compound 2d, 2-(2-(dimethylamino)ethyl)-7-fluoropyrrolo[2,3,4-kl]acridin-1-(2H)-one] | 951 | 1700 |  | 1850 | 1410 | significantly inhibited
COc1ccc2nc3cccc4c3c(c2c1)C(=O)N4CCCN(C)C [Compound 3c, 2-(3-(dimethylamino)propyl)-9-methoxypyrrolo[2,3,4-kl]acridin-1-(2H)-one] | 1110 | 1850 |  | 3470 | 1830 | 
O=C1c2c3ccccc3nc3cccc(c23)N1CCN1CCCCC1 [Compound 1f, 2-(2-(piperidin-1-yl)ethyl)pyrrolo[2,3,4-kl]acridin-1-(2H)-one] | 1130 | 3930 | 3650 | 3190 | 2270 | 
O=C1c2c3ccccc3nc3cccc(c23)N1CCN1CCCC1 [Compound 1g, 2-(2-(pyrrolidin-1-yl)ethyl)pyrrolo[2,3,4-kl]acridin-1-(2H)-one] | 946 |  | 6520 | 3990 | 2160 | 
O=C1c2c3ccccc3nc3cccc(c23)N1c1ccccc1 [Compound 6b, 2-phenylpyrrolo[2,3,4-kl]acridin-1-(2H)-one, reference compound] | > 50000 | > 50000 | > 50000 | > 50000 | > 50000 | 
Cc1ccc2c3c(c4ccccc4nc13)C(=O)N2CCN(C)C [Compound 5e, 2-(2-(dimethylamino)ethyl)-5-methylpyrrolo[2,3,4-kl]-acridin-1-(2H)-one] | 767 | 959 |  | 1660 | 1280 | significantly inhibited
